Test results: the supplement of paper PMC4862054

Key:
Conditions in all cases: incubation time: 72 h
BT-474 [1] = assay: normalised viability (% of control), CellTiter-Blue; higher = more viable cells (about 100 = DMSO control)
Protocol: (§1)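 DSRT, CellTiter-Blue viability, 72 h incubation. Signal is normalised to DMSO and benzethonium chloride controls. Value is the normalised response at dose 3.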

BT-549 = assay: as above
Protocol: as §1

CAL-120 = assay: as above
Protocol: as §1

CAL-148 = assay: as above
Protocol: as §1

CAL-51 = assay: as above
Protocol: as §1

CAL-85-1 = assay: as above
Protocol: as §1

DU-4475 [2] = assay: as above
Protocol: as §1

HCC1143 [3] = assay: as above
Protocol: as §1

HCC1599 [4] = assay: as above
Protocol: as §1

HCC1937 [5] = assay: as above
Protocol: as §1

HDQ-P1 = assay: as above
Protocol: as §1

Hs578T [6] = assay: as above
Protocol: as §1

MDA-MB-231 = assay: as above
Protocol: as §1

MDA-MB-436 [7] = assay: as above
Protocol: as §1

MDA-MB-453 [8] = assay: as above
Protocol: as §1

MDA-MB-468 = assay: as above
Protocol: as §1

MFM-223 = assay: as above
Protocol: as §1

SK-BR-3 = assay: as above
Protocol: as §1

BT-474 [9] = assay: normalised viability (% of control), CellTiter-Blue; higher = more viable cells (about 100 = DMSO control); remark: listed apart in the source
Outline: (§2)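 Breast cancer cell lines were treated for 72 h in 384-well format and measured by CellTiter-Blue fluorescence at 560/590 nm. Results were normalised per plate to vehicle (100) and a positive kill control (0). The entry is normalised viability at a single listed concentration of the series.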

DU-4475 [10] = assay: as above; remark: listed apart in the source
Outline: as §2

HCC1143 [11] = assay: as above; remark: listed apart in the source
Outline: as §2

HCC1599 [12] = assay: as above; remark: listed apart in the source
Outline: as §2

HCC1937 [13] = assay: as above; remark: listed apart in the source
Outline: as §2

Hs578T [14] = assay: as above; remark: listed apart in the source
Outline: as §2

MDA-MB-436 [15] = assay: as above; remark: listed apart in the source
Outline: as §2

MDA-MB-453 [16] = assay: as above; remark: listed apart in the source
Outline: as §2

MDA-MB-453 [17] = assay: drug sensitivity score (DSS), CellTiter-Blue viability (DSS (AUC-based score)); higher = stronger viability inhibition; extreme values may be limits of the assay
Protocol: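 DSRT with the CellTiter-Blue (resazurin reduction) viability readout, fluorescence 560/590 nm, 72 h incubation. Plates were normalised to DMSO and benzethonium chloride controls. DSS is computed from the area under the fitted dose-response curve (5 or 9 concentrations).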

COc1ccc(S(=O)(=O)Nc2cccnc2Nc2ccc(O)cc2)cc1 [ABT-751]
Conditions | normalised viability [%]
BT-474 [1], 100 nM | 112
BT-474 [9], 10 nM | 112
BT-474 [9], 1000 nM | 60.7
BT-474 [9], 10000 nM | 54
BT-549, 100 nM | 89
CAL-51, 10 nM | 113
CAL-85-1, 10 nM | 88.8
CAL-120, 100 nM | 93
CAL-148, 10 nM | 90.4
DU-4475 [2], 10 nM | 109
DU-4475 [10], 3 nM | 88.8
DU-4475 [10], 30 nM | 95.2
DU-4475 [10], 100 nM | 89.9
HCC1143 [3], 100 nM | 87.2
HCC1143 [11], 10 nM | 83.8
HCC1143 [11], 1000 nM | 56.1
HCC1143 [11], 10000 nM | 29.1
HCC1599 [4], 100 nM | 102
HCC1599 [12], 10 nM | 112
HCC1599 [12], 1000 nM | 85.6
HCC1599 [12], 10000 nM | 40.4
HCC1937 [5], 100 nM | 92.4
HCC1937 [13], 10 nM | 86.8
HCC1937 [13], 1000 nM | 24.7
HCC1937 [13], 10000 nM | 14
HDQ-P1, 10 nM | 106
Hs578T [6], 100 nM | 88.1
Hs578T [14], 10 nM | 98.9
Hs578T [14], 1000 nM | 16.6
Hs578T [14], 10000 nM | 14.4
MDA-MB-231, 100 nM | 91.4
MDA-MB-436 [7], 100 nM | 108
MDA-MB-436 [15], 10 nM | 86
MDA-MB-436 [15], 1000 nM | 48.3
MDA-MB-436 [15], 10000 nM | 21.4
MDA-MB-453 [8], 10 nM | 87
MDA-MB-453 [16], 3 nM | 105
MDA-MB-453 [16], 30 nM | 81.8
MDA-MB-453 [16], 100 nM | 67.9
MDA-MB-468, 100 nM | 101
MFM-223, 100 nM | 91
SK-BR-3, 100 nM | 71.6

Conditions | drug sensitivity score
MDA-MB-453 [17] | 17.9

Cc1cc(Nc2nc(N[C@@H](C)c3ncc(F)cn3)ncc2Cl)[nH]n1 [AZD1480]
Conditions | normalised viability [%]
BT-474 [1], 10 nM | 124
BT-474 [9], 1 nM | 137
BT-474 [9], 100 nM | 108
BT-474 [9], 1000 nM | 112
BT-549, 10 nM | 94.3
CAL-51, 1 nM | 112
CAL-85-1, 1 nM | 106
CAL-120, 10 nM | 96.9
CAL-148, 1 nM | 88.9
DU-4475 [2], 1 nM | 98.2
DU-4475 [10], 0.3 nM | 102
DU-4475 [10], 3 nM | 104
DU-4475 [10], 10 nM | 95.8
HCC1143 [3], 10 nM | 87.5
HCC1143 [11], 1 nM | 96
HCC1143 [11], 100 nM | 102
HCC1143 [11], 1000 nM | 71.8
HCC1599 [4], 10 nM | 109
HCC1599 [12], 1 nM | 96
HCC1599 [12], 100 nM | 96.6
HCC1599 [12], 1000 nM | 74.6
HCC1937 [5], 10 nM | 100
HCC1937 [13], 1 nM | 112
HCC1937 [13], 100 nM | 83.9
HCC1937 [13], 1000 nM | 83.4
HDQ-P1, 1 nM | 110
Hs578T [6], 10 nM | 90.8
Hs578T [14], 1 nM | 145
Hs578T [14], 100 nM | 102
Hs578T [14], 1000 nM | 80.4
MDA-MB-231, 10 nM | 98.1
MDA-MB-436 [7], 10 nM | 135
MDA-MB-436 [15], 1 nM | 109
MDA-MB-436 [15], 100 nM | 96.4
MDA-MB-436 [15], 1000 nM | 125
MDA-MB-453 [8], 1 nM | 108
MDA-MB-453 [16], 0.3 nM | 120
MDA-MB-453 [16], 3 nM | 95.6
MDA-MB-453 [16], 10 nM | 110
MDA-MB-468, 10 nM | 105
MFM-223, 10 nM | 89.8
SK-BR-3, 10 nM | 132

Conditions | drug sensitivity score
MDA-MB-453 [17] | 0.912

CNC(=O)c1ccccc1Sc1ccc2c(/C=C/c3ccccn3)n[nH]c2c1 [Axitinib]
Conditions | normalised viability [%]
BT-474 [1], 100 nM | 114
BT-474 [9], 10 nM | 112
BT-474 [9], 1000 nM | 105
BT-474 [9], 10000 nM | 76.4
BT-549, 100 nM | 113
CAL-51, 10 nM | 107
CAL-85-1, 10 nM | 96
CAL-120, 100 nM | 96.8
CAL-148, 10 nM | 98
DU-4475 [2], 10 nM | 113
DU-4475 [10], 3 nM | 107
DU-4475 [10], 30 nM | 114
DU-4475 [10], 100 nM | 97
HCC1143 [3], 100 nM | 101
HCC1143 [11], 10 nM | 89.9
HCC1143 [11], 1000 nM | 96.2
HCC1143 [11], 10000 nM | 57.2
HCC1599 [4], 100 nM | 89.7
HCC1599 [12], 10 nM | 105
HCC1599 [12], 1000 nM | 84.8
HCC1599 [12], 10000 nM | 62
HCC1937 [5], 100 nM | 118
HCC1937 [13], 10 nM | 41.1
HCC1937 [13], 1000 nM | 81.8
HCC1937 [13], 10000 nM | 42.6
HDQ-P1, 10 nM | 100
Hs578T [6], 100 nM | 73.2
Hs578T [14], 10 nM | 92.1
Hs578T [14], 1000 nM | 93
Hs578T [14], 10000 nM | 54.2
MDA-MB-231, 100 nM | 102
MDA-MB-436 [7], 100 nM | 70
MDA-MB-436 [15], 10 nM | 103
MDA-MB-436 [15], 1000 nM | 21.7
MDA-MB-436 [15], 10000 nM | 46
MDA-MB-453 [8], 10 nM | 104
MDA-MB-453 [16], 3 nM | 103
MDA-MB-453 [16], 30 nM | 108
MDA-MB-453 [16], 100 nM | 97.2
MDA-MB-468, 100 nM | 101
MFM-223, 100 nM | 82.6
SK-BR-3, 100 nM | 58.8

Conditions | drug sensitivity score
MDA-MB-453 [17] | 7.1

CC(O)(CS(=O)(=O)c1ccc(F)cc1)C(=O)Nc1ccc(C#N)c(C(F)(F)F)c1 (configuration not stated) [Bicalutamide]
Conditions | normalised viability [%]
BT-474 [1], 100 nM | 115
BT-474 [9], 10 nM | 119
BT-474 [9], 1000 nM | 109
BT-474 [9], 10000 nM | 138
BT-549, 100 nM | 84.5
CAL-51, 10 nM | 105
CAL-85-1, 10 nM | 110
CAL-120, 100 nM | 97.2
CAL-148, 10 nM | 109
DU-4475 [2], 10 nM | 103
DU-4475 [10], 3 nM | 92.2
DU-4475 [10], 30 nM | 88.8
DU-4475 [10], 100 nM | 99.1
HCC1143 [3], 100 nM | 99.8
HCC1143 [11], 10 nM | 94.8
HCC1143 [11], 1000 nM | 105
HCC1143 [11], 10000 nM | 92.7
HCC1599 [4], 100 nM | 83.7
HCC1599 [12], 10 nM | 98.3
HCC1599 [12], 1000 nM | 93.6
HCC1599 [12], 10000 nM | 109
HCC1937 [5], 100 nM | 83
HCC1937 [13], 10 nM | 101
HCC1937 [13], 1000 nM | 107
HCC1937 [13], 10000 nM | 78.5
HDQ-P1, 10 nM | 121
Hs578T [6], 100 nM | 93.6
Hs578T [14], 10 nM | 108
Hs578T [14], 1000 nM | 112
Hs578T [14], 10000 nM | 113
MDA-MB-231, 100 nM | 105
MDA-MB-436 [7], 100 nM | 98.7
MDA-MB-436 [15], 10 nM | 90
MDA-MB-436 [15], 1000 nM | 96.2
MDA-MB-436 [15], 10000 nM | 96.7
MDA-MB-453 [8], 10 nM | 101
MDA-MB-453 [16], 3 nM | 114
MDA-MB-453 [16], 30 nM | 89.2
MDA-MB-453 [16], 100 nM | 95.9
MDA-MB-468, 100 nM | 94.6
MFM-223, 100 nM | 87
SK-BR-3, 100 nM | 94.1

Conditions | drug sensitivity score
MDA-MB-453 [17] | 0
